Experiments:
[1] = system: Salmonella typhimurium TA100, TA1535, TA98, TA1537 and Escherichia coli WP2uvrA; experiment: Mutagenicity study using bacteria (pre-incubation method); assay type: cell-based; conditions: five strains; metabolic activation method and direct method
Description: The gene mutagenicity by the present compound was examined using bacteria.
A study was conducted in the presence of a metabolic activator (hereinafter referred to as a “metabolic activation method”) and in the absence of a metabolic activator (hereinafter referred to as a “direct method”) by a pre-incubation method, using three strains, i.e., Salmonella typhimurium TA100 and TA1535, and Escherichia coli WP2uvrA, to detect base pair substitution gene mutations, and two strains, i.e., Salmonella typhimurium TA98 and TA1537, to detect frameshift gene mutations.

hERG current = target: T1, hERG current (Homo sapiens, UniProt Q12809); experiment: Effect on hERG current (whole-cell patch clamp); assay type: cell-based; conditions: 0.1, 1, 10 µM; up to 10 µM; 10 minutes after application; hERG-expressing HEK293 cells
T1 construct: expressed in transfected cells; host or cells: HEK293
Description: The effect of the present compound on hERG current was examined by a whole-cell patch clamp method using HEK293 cells transfected with the human ether-a-go-go-related gene (hERG). This study was performed as part of a safety pharmacology core battery study to predict the risk of a drug-induced proarrhythmic effect, in particular, prolongation of QT interval on an electrocardiogram, in an in vitro study. The concentration of the present compound was set to 0.1, 1, and 10 µM, and the tail peak current suppression rate (%) 10 minutes after application relative to that before application was used as an index of the effect on hERG current. As a vehicle control, 0.1 v/v% DMSO was used, and as a positive control, 0.1 µmol/L of E-4031 was used.

[2] = parameters: species or system human; conditions: in vivo, po
Description: A placebo-controlled single oral dose study was performed to examine the safety and pharmacokinetics upon single oral dose administration of the present compound in healthy Japanese adult males (subjects).
The oral dosages were 30 mg (step 1), 60 mg (step 2), 120 mg (step 3), and 240 mg (step 5) per day, and the food effect was separately examined in administration at a dosage of 60 mg (step 4) (a total of five steps). In steps 1 to 3 and 5, the number of subjects per step was 8 (6 subjects in the present compound administration group and 2 subjects in the placebo group), of which 1 subject of the present compound administration group and 1 subject of the placebo group were used as the preceding group, and 5 subjects of the present compound administration group and 1 subject of the placebo group were used as the following group. The study proceeds to the following group after confirming safety in the preceding group. The transition from one step to the next was made after confirming safety. In step 4, which examines the food effect, the present compound was orally administered to all 6 subjects. […]
After administration of the present compound and the placebo, the following items were evaluated in each subject. […]

T1 sequence (Q12809 whole entry): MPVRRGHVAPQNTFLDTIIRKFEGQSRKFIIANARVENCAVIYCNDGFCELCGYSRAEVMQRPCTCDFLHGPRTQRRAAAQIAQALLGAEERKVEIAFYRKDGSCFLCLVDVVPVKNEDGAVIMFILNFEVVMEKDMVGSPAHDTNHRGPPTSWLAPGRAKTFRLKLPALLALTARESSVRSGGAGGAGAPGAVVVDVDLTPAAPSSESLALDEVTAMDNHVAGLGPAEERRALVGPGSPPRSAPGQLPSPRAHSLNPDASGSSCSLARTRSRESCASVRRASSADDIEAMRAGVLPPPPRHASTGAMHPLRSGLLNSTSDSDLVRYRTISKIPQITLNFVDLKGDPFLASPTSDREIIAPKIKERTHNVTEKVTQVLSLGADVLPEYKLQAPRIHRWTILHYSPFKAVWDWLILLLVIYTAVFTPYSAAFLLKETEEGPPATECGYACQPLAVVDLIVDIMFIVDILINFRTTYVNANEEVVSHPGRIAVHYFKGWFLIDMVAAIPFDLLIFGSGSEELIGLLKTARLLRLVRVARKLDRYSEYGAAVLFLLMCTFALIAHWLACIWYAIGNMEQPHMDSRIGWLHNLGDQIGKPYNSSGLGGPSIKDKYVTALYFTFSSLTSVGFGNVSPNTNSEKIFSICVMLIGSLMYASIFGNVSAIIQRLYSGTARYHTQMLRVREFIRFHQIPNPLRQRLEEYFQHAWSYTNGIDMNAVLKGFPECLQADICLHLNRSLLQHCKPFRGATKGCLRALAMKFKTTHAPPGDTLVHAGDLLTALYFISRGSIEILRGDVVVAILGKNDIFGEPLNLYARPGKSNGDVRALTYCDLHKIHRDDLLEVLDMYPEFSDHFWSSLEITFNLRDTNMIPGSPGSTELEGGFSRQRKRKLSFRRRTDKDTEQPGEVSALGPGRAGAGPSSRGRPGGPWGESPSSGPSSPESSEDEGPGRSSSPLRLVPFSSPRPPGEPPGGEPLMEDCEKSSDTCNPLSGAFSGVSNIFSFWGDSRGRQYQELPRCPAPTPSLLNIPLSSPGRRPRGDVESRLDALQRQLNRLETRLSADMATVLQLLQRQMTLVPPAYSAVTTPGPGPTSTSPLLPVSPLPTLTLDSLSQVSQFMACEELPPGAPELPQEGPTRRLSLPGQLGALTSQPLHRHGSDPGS

For O=C(Nc1ccc(Cl)cc1C(=O)[O-])c1cccc(-c2cccc3cccnc23)c1.[Na+] [present compound, sodium 5-chloro-2-({ [3-(quinolin-8-yl)phenyl]carbonyl}amino)benzoate], the mutagenesis effect [1] was “no mutagenesis effect”, the “suppressive effect on hERG current (tail peak current suppression rate)” value (hERG current) was “no suppressive effect” and the AUC versus dosage [2] was “linearity”.
